Reference: PubChem BioAssay (NCI)
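Grown in 96-well plates, cells were treated for 48 hours with each compound at five concentrations. Insufficient inhibition: endpoint recorded as highest concentration tested. GI50 = concentration required for 50% inhibition of growth. TGI marks complete inhibition of growth.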

Tests used:
Assay in all cases: DTP human tumour cell line panel, 48 h
[1] = test system: NCI-H522 lung
[2] = test system: PC-3 prostate
[3] = test system: K-562 leukemia
[4] = test system: OVCAR-4 ovarian
[5] = test system: UO-31 renal
[6] = test system: U251 CNS
[7] = test system: HOP-62 NSCLC
[8] = test system: SK-OV-3 ovarian
[9] = test system: SF-268 CNS
[10] = test system: SNB-19 CNS

SMILES | TGI [1] | TGI [2] | TGI [3] | TGI [4] | TGI [5] | TGI [6] | TGI [7] | TGI [8] | TGI [9] | TGI [10] | GI50 [8] | GI50 [10] | GI50 [2] | GI50 [3] | GI50 [6] | GI50 [7] | GI50 [1] | GI50 [4] | GI50 [5] | GI50 [9]
NC(=O)CCSC(CC(=O)c1ccc(Cl)cc1)c1ccc(Cl)cc1 (stereo not given) | 80.3 µM | > 100 µM | > 100 µM | 45.2 µM | > 100 µM | 34.5 µM | 93.1 µM | > 100 µM | 82.1 µM | > 100 µM | – | – | – | – | – | – | – | – | – | –
COC(=O)c1ccc2c(c1)sc1nc(-c3ccc(OC)cc3)cn12 | > 100 µM | > 100 µM | > 100 µM | > 100 µM | > 100 µM | > 100 µM | > 100 µM | > 100 µM | > 100 µM | > 100 µM | – | – | – | – | – | – | – | – | – | –
Cc1ccc2c3c1[C@@H]1O[C@@H]1c1cccc(c1-3)[C@@H]1O[C@H]21 | 29.6 µM | 30.7 µM | 37.5 µM | 33.3 µM | 27.7 µM | 28.9 µM | 32 µM | 63.9 µM | 34.1 µM | 49.9 µM | – | – | – | – | – | – | – | – | – | –
Cc1cc2c(cc1Cl)SC(c1ccccc1O)NS2(=O)=O (stereo not given) | > 100 µM | > 100 µM | > 100 µM | > 100 µM | > 100 µM | > 100 µM | > 100 µM | > 100 µM | > 100 µM | > 100 µM | – | – | – | – | – | – | – | – | – | –
Cc1ccc(C(=O)Nc2ncn(C3CC(O)C(CO)O3)c(=O)n2)cc1 (stereo not given) | > 100 µM | – | > 100 µM | > 100 µM | > 100 µM | > 100 µM | > 100 µM | > 100 µM | > 100 µM | > 100 µM | – | – | – | – | – | – | – | – | – | –
CC(C)(C)c1cc(-c2nc3ccc(N4CCN(CCO)CC4)cc3[nH]2)cc(C(C)(C)C)c1O | – | – | – | – | – | – | – | 86.1 µM | – | > 100 µM | 12.7 µM | 3.48 µM | – | – | – | – | – | – | – | –
N=C(N)c1ccc(N=Nc2c(O)ccc3cc4c(N=Nc5ccc(C(=N)N)cc5)c(O)ccc4cc23)cc1 | > 100 µM | > 100 µM | > 100 µM | > 100 µM | > 100 µM | > 100 µM | > 100 µM | > 100 µM | > 100 µM | > 100 µM | – | – | – | – | – | – | – | – | – | –
CCCCCCCCCCCCSC(=S)c1c(C)[nH]n(CCCCCCCCCCCC)c1=O | > 100 µM | – | > 100 µM | > 100 µM | > 100 µM | > 100 µM | > 100 µM | > 100 µM | > 100 µM | > 100 µM | – | – | – | – | – | – | – | – | – | –
N#Cc1c(-c2ccc(Cl)cc2)c2c([nH]c1=O)-c1cc([N+](=O)[O-])ccc1CCC2 | 41.8 µM | > 100 µM | > 100 µM | > 100 µM | 32.5 µM | 41.6 µM | 45.9 µM | > 100 µM | 44.2 µM | 56.8 µM | – | – | – | – | – | – | – | – | – | –
CCN(CCO)CCNc1ccc(C)c2sc3ccccc3c(=O)c12 | 11.4 µM | 12.7 µM | 11.9 µM | 21.7 µM | 15 µM | 12.4 µM | 11 µM | 18.1 µM | 20.9 µM | 24.7 µM | – | – | – | – | – | – | – | – | – | –
COc1ccc(N=Cc2ccc(N(CCC#N)S(=O)(=O)c3ccccc3)cc2C)cc1 | > 100 µM | – | > 100 µM | > 100 µM | > 100 µM | > 100 µM | > 100 µM | > 100 µM | > 100 µM | > 100 µM | – | – | – | – | – | – | – | – | – | –
COc1cc(/C=C2\N=C(c3ccccc3)N(c3nc4ccc(Sc5ccccc5)cc4[nH]3)C2=O)cc(OC)c1OC | 48 µM | > 100 µM | 48.1 µM | > 100 µM | > 100 µM | 43.9 µM | > 100 µM | > 100 µM | > 100 µM | > 100 µM | – | – | – | – | – | – | – | – | – | –
O=c1c(-c2ccccc2)c(SCCN2CCOCC2)n(-c2ccccc2)c(=S)n1-c1ccccc1 | > 100 µM | > 100 µM | > 100 µM | > 100 µM | – | > 100 µM | > 100 µM | > 100 µM | – | – | – | – | – | – | – | – | – | – | – | –
C=C1c2nc3ccccc3n2C=C(c2ccc(Cl)cc2)N1c1ccc(OCCN2CCCCC2)cc1 | 45 µM | > 100 µM | > 100 µM | > 45 µM | > 45 µM | > 100 µM | > 100 µM | > 100 µM | 45 µM | > 100 µM | > 100 µM | 4.53 µM | > 100 µM | 1.09 µM | 3.75 µM | > 100 µM | – | – | – | –
O=C([CH-]C(=O)c1ccccc1)c1ccccc1.O=C([CH-]C(=O)c1ccccc1)c1ccccc1.O=C([CH-]C(=O)c1ccccc1)c1ccccc1.[Cl-].[Hf+4] | 62.8 µM | – | > 100 µM | > 100 µM | 96.9 µM | > 100 µM | – | 62.3 µM | > 100 µM | > 100 µM | 22.7 µM | 14.1 µM | – | 7.11 µM | 19.1 µM | – | 12.6 µM | 14.6 µM | 26.8 µM | 26.4 µM
Cn1c2cn[nH]c(=O)c2c2ccc3ccccc3c21 | 59.5 µM | > 100 µM | > 100 µM | > 100 µM | 70.6 µM | 47.1 µM | 31.8 µM | > 100 µM | 97.2 µM | > 100 µM | – | – | – | – | – | – | – | – | – | –
Cc1cn(Cc2cn(CC3OC(n4cc(C)c(=O)[nH]c4=O)CC3O)nn2)c(=O)[nH]c1=O (stereo not given) | – | > 100 µM | – | > 100 µM | > 100 µM | > 100 µM | > 100 µM | > 100 µM | > 100 µM | > 100 µM | – | – | – | – | – | – | – | – | – | –
COc1cc(C2C(=O)C(Cl)N2Nc2nc(C)cc(=O)[nH]2)cc(OC)c1OC (stereo not given) | – | – | 41.1 µM | 56.2 µM | 79.1 µM | 36.3 µM | > 100 µM | – | > 100 µM | > 100 µM | – | – | – | – | – | – | – | – | – | –
